From US20250327791A1, “METHODS OF TREATMENT BASED ON PATIENT SPECIFIC CLINICAL TRIAL MODELS AND ASSOCIATED MODELS AND USES” (DUKE UNIVERSITY, priority 2017, published 2025)

What was measured:
organoid C = experiment: Organoid cell viability / IC50; format: cell-based
Procedure: (§1) In embodiments organoids were created by embedding single cells in Matrigel on ice and seeding the cells in 48 well plates. After the Matrigel was polymerized for 10 minutes at 37° C. basal culture medium was overlaid containing at least one of the optimized growth factor combinations in FIG. 19.
(§2) ATAC-Seq tests were run to determine which pathways were up and down regulated in the presence of various drugs. […] The effectiveness of oxaliplatin 230, an FGFR1 inhibitor 231, along with oxaliplatin and an FGFR1 inhibitor 234 as cell killers was tested in the organoid as shown in FIG. 23. […] The cell killing potential of oxaliplatin 241, an oxytocin antagonist 243, along with oxaliplatin and an oxytocin antagonist 245 was tested as shown in FIG. 24.

organoid A = experiment: Organoid cell viability / IC50; format: cell-based; details: organoid A
Procedure: as §1, §2

organoid B = experiment: Organoid cell viability / IC50; format: cell-based
Procedure: as §1, §2

CRC119 = experiment: High-throughput drug screen, CellTiter-Glo cell viability; format: cell-based, human; details: CRC119 cell line; 1 μM; 72 hours
Procedure: (§3) Unless otherwise noted all experiments were carried out using the following materials and methods which are here presented as examples and not limiting embodiments. All equivalent variants are contemplated as part of the presently disclosed subject matter. An Echo Acoustic Dispenser provided automated liquid handling for drug addition while cell plating was performed by a Thermo Fisher Well Mate and assays used a Clarioscan plate reader. The drugs assayed were stamped to the cell plates immediately prior to cell plating at a final concentration of 1 μM. The drug pre-coated plates were plated with 500-1000 cells/well. 72 hours after cell plating cell viabilities were assessed via a CellTiter-Glo Luminescent Cell Viability Assay.
(§4) In this embodiment matching cells lines 31 and PDXs are created 32. These can be developed as described in the Uronis and Kim papers previously incorporated by reference. Drugs may subsequently be screened using these cell lines 33 the results validated in vivo 34 and RNA-Seq and molecular analysis 35 used. As a non-limiting example, CRC057, CRC119, CRC240, CRC247 15-496, and 16-159 were derived from patient colorectal cancers. It should be understood by those of skill in the art that any suitable type of cancer sample may have been taken. High-throughput drug screens, including 119 FDA-approved drug compounds, were performed using the patient-derived cell lines. Any suitable type of high or low throughput drug screen of any FDA approved or non-FDA approved drug may be performed on the cell lines. […] 88%, 95%, 88, and 89% of CRC119 were killed by docetaxel 42, doxorubicin 41, and the vinca alkaloids vincristine and vinorelbine 43 respectively. 46%, 93%, 63% and 56% of CRC240 were killed by docetaxel 42, doxorubicin 41, and the vinca alkaloids vincristine and vinorelbine 43 respectively. 47% 83%, 46% and 46% of CRC057 were killed by docetaxel 42, doxorubicin 41, and the vinca alkaloids vincristine and vinorelbine 43 respectively. 25%, 70%, 37%, and 33% of CRC247 were killed by docetaxel 42, doxorubicin 41, and the vinca alkaloids vincristine and vinorelbine 43 respectively. […] CRC119 45 and 16-159 46 were sensitive to the standard of care cytotoxic chemotherapeutic agent irinotecan with 43% and 64% of cells killed respectively.

16-159 = experiment: as above; format: cell-based, human; details: 16-159 cell line; 1 μM; 72 hours
Procedure: as §3, §4

CRC119 organoid = experiment: Organoid drug sensitivity assay (Cell Titer Glo); format: cell-based, human; details: SN38 tested rather than irinotecan in organoids
Procedure: (§5) In embodiments, organoids are prepared by mincing a […] tissue sample into <2 mm^3 pieces. Samples are then digested in 5 mL of DMEMF-12+Penicillin Streptomycin+Rock inhibitor Y-27632 along with 20 μL of 0.25% Trypsin/EDTA for an hour with manual inversion every 10 minutes. After being spun down at 1500 RPM the pellet is washed with 5 mL of 10% FBS. During each of 3 washes the material is pipetted slowly about fifteen times. After each wash supernatant is collected and passed through a 70 μm cell strainer. Collected washes are spun down for five minutes at 1500 RPM and the pellet mixed with a 4:1 mixture of Matrigel®/PBS and plated. After the Matrigel® solidifies 1 mL of media is added to each well.
(§6) Collected matrigel is spun for 7 minutes at 1500 RPM. The pellet is collected and resuspended in 300 μL of PBS. 50 μL of this mixture is then mixed with 50 μL of a 1:1 mixture of matrigel/PBS. 5 μL of this mixture is then added to the center of each well in a 96 well plate and the plate incubated until the matrigel solidifies. […] After 90 μL of media is added and the plate is incubated at 37° C. for 24 hours, 5 μL of the tested drug is added to each well. Example concentrations, such as 100 nM, 1 μM and 10 μM concentrations, may be tested in triplicate. After the plate is incubated at 37° C. for 48 hours, 40 μL of Cell Titer Glo for organoids is added to each well to determine drug sensitivity.
(§7) In embodiments, patients undergo biopsy of metastatic cancer, CT of the chest, abdomen and pelvis. In embodiments, drug sensitivity is tested within 7-10 days (or 2-3 days) of obtaining tissue. In embodiments, FIG. 12, organoids are prepared from a PDX biopsy 121 by collecting and digesting cells 122, seeding the cells in a 24 well plate 123, after incubation seeding cells from the 24 well plate in a 96 well plate 124 and screening drugs 125. […] Sensitivity to oxaliplatin at 100 nM, 1 μM, and 10 μM was tested on 8 organoids, CRC057, CRC119, CRC240, CRC16-159, CRC17-608, CRC18-347, CRC247 and CRC18-266, created using the above procedure. […] SN38 (7-ethyl-10-hydroxycamptothecin) was tested, rather than irinotecan, in organoids since irinotecan undergoes deesterification to SN-38 in vivo but not in vitro.

CRC240 organoid = experiment: Organoid drug sensitivity assay (Cell Titer Glo); format: cell-based, human; details: SN38 tested rather than irinotecan in organoids
Procedure: as §5, §6, §7

CRC240 PDX = experiment: PDX studies accompanying the organoid studies (tumor growth inhibition); format: in vivo, mice; details: 10 mg/kg oxaliplatin or 20 mg/kg irinotecan weekly IP for three weeks
Excerpt: (§8) PDX studies accompanying the organoid studies were developed as described previously and in Uronis J M, Osada T, McCall S, Yang X Y, Mantyh C, Morse M A, et al. Histological and molecular evaluation of patient-derived colorectal cancer explants. PloS one 2012; 7:e38422, and Kim M K, Osada T, Barry W T, Yang X Y, Freedman J A, Tsamis K A, et al. Characterization of an oxaliplatin sensitivity predictor in a preclinical murine model of colorectal cancer. Molecular cancer therapeutics 2012; 11:1500-1509. Both of these references are hereby incorporated in their entirety. 6-8 week old NOD/SCID-beige mice were used and the tumors were measured twice a week as described above. Once tumors reached a size of 250 mm^3 mice were treated with either 10 mg/kg oxaliplatin or 20 mg/kg irinotecan weekly via IP (intraperitoneal injection) for three weeks with saline used as a control. PDX tumor sizes were recorded and one-way ANOVA analysis were carried out as described in the references above to determine TGI (tumor growth inhibition.
as §7

CRC119 PDX = experiment: as above; format: in vivo, mice; details: 10 mg/kg oxaliplatin or 20 mg/kg irinotecan weekly IP for three weeks
Excerpt: as §8, §7

CRC247 = experiment: High-throughput drug screen, CellTiter-Glo cell viability; format: cell-based, human; details: CRC247 cell line; 1 μM; 72 hours
Procedure: as §3, §4

CRC057 = experiment: as above; format: cell-based, human; details: CRC057 cell line; 1 μM; 72 hours
Procedure: as §3, §4

CRC240 = experiment: as above; format: cell-based, human; details: CRC240 cell line; 1 μM; 72 hours
Procedure: as §3, §4

Row | SMILES | IC50 (organoid C) [nM] | IC50 (organoid A) [nM] | IC50 (organoid B) [µM] | cells killed (CRC119) [%] | cells killed (CRC247) [%] | cells killed (CRC057) [%] | cells killed (CRC240) [%] | further results
1 | O=c1[nH]cc(F)c(=O)[nH]1 [fluorouracil] | 125 | 3960 | 0.037 |  |  |  |  | 
2 | CCc1c2c(nc3ccc(OC(=O)N4CCC(N5CCCCC5)CC4)cc13)-c1cc3c(c(=O)n1C2)COC(=O)[C@]3(O)CC [irinotecan] |  |  |  | 43 |  |  |  | cells killed (16-159): 64%; organoid sensitivity (CRC119 organoid): sensitive; organoid sensitivity (CRC240 organoid): sensitive; PDX sensitivity (CRC240 PDX): sensitive; PDX sensitivity (CRC119 PDX): sensitive
3 | CCc1c2c(nc3ccc(O)cc13)-c1cc3c(c(=O)n1C2)COC(=O)[C@]3(O)CC [SN38, 7-ethyl-10-hydroxycamptothecin] | 32.6 | 11.6 | 43.9 |  |  |  |  | 
4 | CCC1=C[C@@H]2CN(C1)Cc1c([nH]c3ccccc13)[C@@](C(=O)OC)(c1cc3c(cc1OC)N(C)[C@H]1[C@@](O)(C(=O)OC)[C@H](OC(C)=O)[C@]4(CC)C=CCN5CC[C@]31[C@@H]54)C2 [vinorelbine] |  |  |  | 89 | 33 | 46 | 56 | 
5 | CC[C@]1(O)C[C@H]2CN(CCc3c([nH]c4ccccc34)[C@@](C(=O)OC)(c3cc4c(cc3OC)N(C=O)[C@H]3[C@@](O)(C(=O)OC)[C@H](OC(C)=O)[C@]5(CC)C=CCN6CC[C@]43[C@@H]65)C2)C1 [vincristine] |  |  |  | 88 | 37 | 46 | 63 | 
